Experimental data from patent publication US20150284452A1, “ANTIMICROBIAL COMPOSITIONS” (priority 2012, published 2015).

Tested on: S. aureus NRS384 (USA300)
Assay: MIC assay at multiple inoculum sizes
Assay type: cell-based, Staphylococcus aureus
Text: 5×10^6 cfu/ml and 75 nanomolar against an inoculum of 5×10^8 cfu/ml.

[1] = High Titer 5,000,000 CFU/well, ND = higher than highest tested concentration
[2] = High Titer 500,000,000 CFU/well, ND = higher than highest tested concentration
[3] = Low Titer 50,000,000 CFU/well, ND = higher than highest tested concentration

Lysostaphin (Sigma L9043): lysostaphin control (Sigma L9043), glycylglycine endopeptidase
MIC Rep 1 [1]: 27.1 nM | MIC Rep 2 [1]: 27.1 nM | MIC Ave (High Titer 5,000,000 CFU/well, average of replicates): 27.1 nM | MIC Ave [2]: 200 nM | MIC Rep 2 [2]: 200 nM | MIC Rep 1 (Low Titer 50,000 CFU/well): 54 nM | MIC Rep 2 (Low Titer 50,000 CFU/well): 27.1 nM | MIC Ave (Low Titer 50,000 CFU/well, average of replicates): 40.7 nM | MIC Ave [3]: 200 nM | MIC Rep 1 [3]: 200 nM | MIC Rep 2 [3]: 200 nM
